For series [1], the system named is complément. The series is described as follows: Complement activation (hemolytic concentration 50, CH 50). Further details: unit not given here. The note with it: higher CH 50 = less complement activation, better tolerance. It is filed as biochemical. The source says: Les travaux d'Elliott C. Lasser (Investig. Radiol., 1974, 9, 4 6A) ont montré que les produits de contraste activent le complément, qui est un ensemble de protéines sériques dont l'activation peut conduire à des réactions anaphylactiques graves.
La mesure de cette activation est effectuée par la détermination de la concentration hémolytique 50 désignée CH 50. On estime que les produits moins activateurs du complément, c'est-à-dire ayant une CH 50 plus élevée , provoquent moins d'effets secondaires de type anaphylactiques et présentent donc une meilleure tolérance.

Series [2] in a line: X-ray opacity measured via film densitometry, relative to Hexabrix. The class given is physicochemical. The note with it: aqueous solutions of methylglucamine salts, same number of moles as Hexabrix (32 % iodine), X-ray source 70 kV. An excerpt:
L'opacité a été mesurée indirectement à l'aide de l'impression produite sur un film photographique par un faisceau de rayons X traversant une cuve contenant une solution aqueuse des composés. La transparence du film après développement a été mesurée à l'aide d'un densi- tomètre optique. Dans chaque cas, la mesure a été effectuée sur le même film et avec la même source de rayons X (70 kV) par comparaison avec un produit opacifiant servant de référence.
Comme produit de référence, on a utilisé l'Hexa- brix qui est une solution de sels de sodium et de méthyl- glucamine de l'acide ioxaglique à 32 % en iode.
Les composés selon l'invention ont été testés sous forme de solutions aqueuses de leurs sels de méthyl- glucamine contenant le même nombre de moles de composés que l'Hexabrix.

With `CNC(=O)c1c(I)c(NC(=O)CNC(=O)c2c(I)cc(I)c(N(C)C(C)=O)c2I)c(I)c(C(=O)O)c1I` [Analogue complètement iodé du composé 5, reference compound], in series [1], the “CH 50” value is 3,8.

Turning to `CNC(=O)c1c(Br)c(C(=O)NCC(=O)Nc2c(I)c(C(=O)O)c(I)c(C(=O)NCCO)c2I)c(Br)c(N(C)C(C)=O)c1Br` [Composé 2, acide triiodo-2,4,6 N-hydroxyéthylcarbamoyl-3 (tribromo-2,4,6 N-méthylcarbamoyl-3 N-méthyl N-acétylamino-5 benzoyl) glycylamino-5 benzoïque], in series [2], the “Opacité relative/Hexabrix” value is reported as 0,92. Besides, the “CH 50” value in series [1] is 20,8.

For `CNC(=O)c1c(I)c(C(=O)NCC(=O)Nc2c(Br)c(C(=O)O)c(Br)c(C(=O)NCCO)c2Br)c(I)c(N(C)C(C)=O)c1I` [compound 1, acide tribromo-2,4,6 N-hydroxyéthylcarbamoyl-3 (triiodo-2,4,6 N-méthylcarbamoyl-3 N-méthyl N-acétylamino-5 benzoyl) glycylamino-5 benzoique], the “Opacité relative/Hexabrix” value in series [2] is 0,91. Also, the “CH 50” value in series [1] is given as 20,2.

As for `CNC(=O)c1c(I)c(NC(=O)CNC(=O)c2c(Br)cc(Br)c(N(C)C(C)=O)c2Br)c(I)c(C(=O)O)c1I` [compound 5], in series [2], the “Opacité relative/Hexabrix” value is recorded as 0,92. The “CH 50” value in series [1] was 7,4.

On to `CNC(=O)c1c(I)c(C(=O)NCC(=O)Nc2c(Br)cc(Br)c(C(=O)O)c2Br)c(I)c(N(C)C(C)=O)c1I` [compound 7], for which the “CH 50” value in series [1] was 10,0.

With `CNC(=O)c1c(Br)c(C(=O)NCC(=O)Nc2c(I)cc(I)c(C(=O)O)c2I)c(Br)c(N(C)C(C)=O)c1Br` [compound 8], the “CH 50” value in series [1] is 11,5.

With `CNC(=O)c1c(Br)c(C(=O)NCCC(=O)Nc2c(I)cc(I)c(C(=O)O)c2I)c(Br)c(N(C)C(C)=O)c1Br` [compound 12], the “CH 50” value in series [1] was 11,0.

For `CNC(=O)c1c(Br)c(C(=O)NCCCC(=O)Nc2c(I)c(C(=O)O)c(I)c(C(=O)NCCO)c2I)c(Br)c(N(C)C(C)=O)c1Br` [compound 13], in series [1], the “CH 50” value is recorded as 15,3.

(Values after EP0074307A1, “Mixed bromo-iodo benzene compounds and contrast products containing them” (Société dite: GUERBET S.A., priority 1981, dated 1983).)
